Experimental data from patent publication US9168247B2, “Beta carboline derivatives useful in the treatment of proliferative disorders” (FACULTES UNIVERSITAIRES NOTRE DAME DE LA PAIX, priority 2010, dated 2015).
Read-outs that look alike come from different tables or passages of the source.

What was measured:
[1] = tested on: OE33 oesophageal cancer cells; assay: MTT test, overall cell growth, OE33; format: cell-based, human
Summary of the method: (§1)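 Glioma (Hs683, T98G, U373) and oesophageal (OE21, OE33) lines seeded at 5,000–8,000 cells/well, treated 24 h later with compound at 1×10^−8 to 1×10^−4 M for 72 h at 37 °C, in sestuplicate.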

T98G glioma cells = assay: MTT test, overall cell growth, T98G; format: cell-based, human; details: 72 hours of incubation
Summary of the method: as §1

[2] = tested on: human cancer cell lines (U373, T98G, Hs683, OE21, OE33); assay: MTT test, mean over the cancer cell lines; format: cell-based
Summary of the method: as §1

DYRK1A protein kinase = DYRK1A protein kinase (Homo sapiens (Human), UniProt Q13627); assay: Radiometric protein kinase assay (33PanQinase Activity Assay); format: biochemical; details: 10 concentrations in triplicate, 1 μM ATP; read-out: IC50: Concentration of drug (μM) needed in order to inhibit dyrk1A kinase activity by 50%
Description: The IC50 profile of JR212, JR220, JR84, CV12, CV24, and JR95 was determined on DYRK1A protein kinase. […] Compound cv12 was tested in the range from about 5×10^−5 M to about 1.5×10^−9 M in triplicate.
A radiometric protein kinase assay (33PanQinase® Activity Assay) was used for measuring the kinase activity of DYRK1A protein kinase. All kinase assays were performed in 96-well FlashPlates™ from Perkin Elmer (Boston, Mass., USA) in a 50 μl reaction volume. The reaction cocktail was pipetted in four steps in the following order: 20 μl of assay buffer (standard buffer); 5 μl of [γ-33P]-ATP solution (in H2O); 5 μl of test compound (in 10% DMSO); 10 μl of substrate/10 μl of enzyme solution (premixed).
The assay contained 60 mM HEPES-NaOH, pH 7.5, 3 mM MgCl2, 3 mM MnCl2, 3 μM Na-orthovanadate, 1.2 mM DTT, 50 μg/ml PEG20000, 1 μM [γ-^33P]-ATP (approx. 3×10^5 cpm per well), protein kinase, and substrate.
For the determination of inhibitory profiles, DYRK1A protein kinase was used, which was purchased from Invitrogen Corporation. The kinase was expressed in […] as human recombinant GST-fusion protein by means of the baculovirus expression system. According to the data sheet, the purity of the kinase was checked by SDS-PAGE/Coomassie staining and the identity of the kinase was verified by mass spectroscopy. About 5 ng/50 μl (about 0.9 nM) of dyrk1A kinase and about 2000 ng/50 μl of substrate (RBER-CHKtide) are used in each assay.
The reaction cocktails were incubated at 30° C. for 60 minutes. The reaction was stopped with 50 μl of 2% (v/v) H3PO4, plates were aspirated and washed two times with 200 μl 0.9% (w/v) NaCl. Incorporation of ^33P was determined with a microplate scintillation counter (Microbeta, Wallac).
All assays were performed with a BeckmanCoulter/SAGIAN™ Core System.
For each plate, the median value of the cpm of the wells with complete reaction cocktails, but without kinase or compound to be tested, was defined as “low control” (n=8). This value reflects unspecific binding of radioactivity to the plate in the absence of protein kinase but in the presence of the substrate. Additionally, for each plate the median value of the cpm of the wells with the complete reaction cocktail, but without any compound, was taken as the “high control”, i.e., full activity in the absence of any inhibitor (n=8). The difference between high and low control of was taken as 100% activity for each kinase. As part of the data evaluation the “low control” value from a particular plate was subtracted from the “high control” value as well as from all 80 “compound values” of the corresponding plate. The residual activity (in %) for each compound well was calculated by using the following formula: Res. Activity (%)=100×[(cpm of compound−low control)/(high control−low control)].

[3] = Homo sapiens, OE33, 72 hours of incubation
[4] = Homo sapiens, Table 4, mean over cell lines, read-out: IC50 μM growth inhibition (MTT test)
[5] = Homo sapiens, mean over the cancer cell lines, MTT test, read-out: IC50 Mean ± SEM
[6] = Table 4, mean over cell lines, read-out: IC50 μM growth inhibition (MTT test)
[7] = mean over the cancer cell lines, MTT test, read-out: IC50 Mean ± SEM

| IC50 [1, 3] [µM] | IC50 (T98G glioma cells; Homo sapiens, T98G) [µM] | IC50 [2, 4] [µM] | IC50 [2, 5] [µM] | IC50 (DYRK1A protein kinase) [µM] | Structure (SMILES) | IC50 ([1]; 72 hours of incubation) [µM] | IC50 (T98G glioma cells) [µM] | IC50 [2, 6] [µM] | IC50 [2, 7] [µM] |
| --- | --- | --- | --- | --- | --- | --- | --- | --- | --- |
| 0.7 ± 0.1 | 0.48 ± 0.02 | 0.7 | 0.7 ± 0.2 | 21.2 | Cc1c2c(cc[n+]1Cc1ccccc1)c1ccc(OCc3ccccc3)cc1n2Cc1ccccc1.[Br-] [CV21/JR95, 1-methyl-2-benzyl-7-benzyloxy-9-benzyl-β-carbolin-2-ium bromide] |  |  |  |  |
| 40 ± 4 | 36 ± 2 | 31 | 31 ± 4 | 16.3 | Cc1nccc2c3ccc(OCc4ccccc4)cc3n(Cc3ccccc3)c12 [CV9/JR84, 1-methyl-7-benzyloxy-9-benzyl-β-carboline] |  |  |  |  |
|  |  |  |  | 10 | Cc1nccc2c1[nH]c1cc(OCc3cccnc3)ccc12 [JR212] | 31 ± 2 | 29 ± 2 | 29 | 29 ± 1 |

| Structure (SMILES) | IC50 [1, 3] [µM] | IC50 (T98G glioma cells; Homo sapiens, T98G) [µM] | IC50 [2, 4] [µM] | IC50 [2, 5] [µM] | IC50 (DYRK1A protein kinase) [µM] | IC50 ([1]; 72 hours of incubation) [µM] | IC50 (T98G glioma cells) [µM] | IC50 [2, 6] [µM] | IC50 [2, 7] [µM] |
| --- | --- | --- | --- | --- | --- | --- | --- | --- | --- |
| COCCOc1ccc2c(c1)[nH]c1c(C)nccc12 [JR220] |  |  |  |  | 15.5 | 66 ± 3 | 61 ± 7 | 60 | 60 ± 3 |
